Earlier results in patent US5420016A, “Test device and kit for detecting helicobacter pylori” (Serim Research Corporation, priority 1994, dated 1995).

Target: Urease from H. pylori (Helicobacter pylori, UniProt P69996)
Conditions: read-out: Michaelis constant (urea); substrate urea; from Dunn, et al., J. Biol. Chem., 265:9464-9 (1990)

Chain of Urease from H. pylori (P69996 whole entry): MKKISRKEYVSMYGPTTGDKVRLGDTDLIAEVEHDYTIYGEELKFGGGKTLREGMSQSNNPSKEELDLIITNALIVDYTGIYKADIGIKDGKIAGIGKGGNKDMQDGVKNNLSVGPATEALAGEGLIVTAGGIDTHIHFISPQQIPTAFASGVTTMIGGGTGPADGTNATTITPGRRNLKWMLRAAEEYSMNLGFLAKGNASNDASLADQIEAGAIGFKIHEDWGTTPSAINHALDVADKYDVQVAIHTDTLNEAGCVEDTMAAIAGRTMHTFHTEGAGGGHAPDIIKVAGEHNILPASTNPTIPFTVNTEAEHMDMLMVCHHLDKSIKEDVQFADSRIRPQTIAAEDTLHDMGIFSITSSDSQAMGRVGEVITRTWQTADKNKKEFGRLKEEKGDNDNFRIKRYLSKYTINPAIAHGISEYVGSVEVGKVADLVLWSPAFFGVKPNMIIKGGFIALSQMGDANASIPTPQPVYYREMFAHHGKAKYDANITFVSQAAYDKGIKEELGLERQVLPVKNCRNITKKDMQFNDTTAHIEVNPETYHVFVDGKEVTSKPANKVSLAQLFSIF
Chain of Urease from H. pylori (P14916 whole entry, further chain): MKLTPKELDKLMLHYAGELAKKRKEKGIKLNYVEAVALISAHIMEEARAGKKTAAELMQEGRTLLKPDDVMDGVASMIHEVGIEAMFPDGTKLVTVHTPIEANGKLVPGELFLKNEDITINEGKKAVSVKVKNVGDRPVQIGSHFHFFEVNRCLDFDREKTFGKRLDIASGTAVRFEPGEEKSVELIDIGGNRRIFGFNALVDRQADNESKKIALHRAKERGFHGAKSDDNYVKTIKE

NC(N)=O [urea]
Km: 300 µM
